Data reported in ChEMBL document CHEMBL1201862, “PubChem BioAssay data set” (2004).
Active and inactive are the calls of the source.

Experiments:
[1] = biological target: T1, Tyrosine-protein phosphatase non-receptor type 7 (Homo sapiens, UniProt P35236); assay: redox-active compounds inhibiting HePTP phosphatase – biochemical, fluorescence, mechanism study (AID 2068); format: functional
T1 sequence (P35236 whole entry): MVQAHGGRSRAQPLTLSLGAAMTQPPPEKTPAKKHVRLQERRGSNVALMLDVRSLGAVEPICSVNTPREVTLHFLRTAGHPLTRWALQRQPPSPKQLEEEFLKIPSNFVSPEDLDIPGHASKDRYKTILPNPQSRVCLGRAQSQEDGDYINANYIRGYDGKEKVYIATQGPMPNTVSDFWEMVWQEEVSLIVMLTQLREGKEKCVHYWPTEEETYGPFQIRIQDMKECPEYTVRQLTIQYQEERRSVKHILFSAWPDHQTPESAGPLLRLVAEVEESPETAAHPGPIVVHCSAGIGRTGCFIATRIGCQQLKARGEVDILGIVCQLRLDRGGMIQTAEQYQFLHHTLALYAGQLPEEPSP

[2] = biological target: T2, Dual specificity protein phosphatase 3 (Homo sapiens, UniProt P51452); assay: SAR VHR1 absorbance Assay for In Vitro dose response studies. [Related pubchem assays (depositor defined):AID1654, AID1661, AID1878, AID1992, AID2004]
[3] = biological target: T2, Dual specificity protein phosphatase 3; assay: SAR VHR1 Fluorescent Assay for In Vitro dose response studies. [Related pubchem assays (depositor defined):AID1654, AID1661, AID1878, AID1992, AID2004, AID2070, AID2085]; format: functional
[4] = biological target: T2, Dual specificity protein phosphatase 3; assay: VHR1 phosphatase inhibitors, primary screen, biochemical, absorbance, uHTS (AID 1654)
[5] = biological target: T2, Dual specificity protein phosphatase 3; assay: VHR phosphatase inhibition, dose response, selectivity assay for STEP inhibitor project, biochemical (AID 602374); format: functional; conditions: read-out: IC50_Mean
[6] = biological target: T2, Dual specificity protein phosphatase 3; assay: VHR1 phosphatase inhibitors, biochemical (AID 1878)
[7] = biological target: T3, Dual specificity protein phosphatase 6 (Rattus norvegicus, UniProt Q64346); format: functional;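 also: confirmatory in vitro dose-response testing of MKP-3 inhibition; recombinant His-tagged MKP-3 made in E. coli BL21 with OMFP substrate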
T3 sequence (Q64346 whole entry): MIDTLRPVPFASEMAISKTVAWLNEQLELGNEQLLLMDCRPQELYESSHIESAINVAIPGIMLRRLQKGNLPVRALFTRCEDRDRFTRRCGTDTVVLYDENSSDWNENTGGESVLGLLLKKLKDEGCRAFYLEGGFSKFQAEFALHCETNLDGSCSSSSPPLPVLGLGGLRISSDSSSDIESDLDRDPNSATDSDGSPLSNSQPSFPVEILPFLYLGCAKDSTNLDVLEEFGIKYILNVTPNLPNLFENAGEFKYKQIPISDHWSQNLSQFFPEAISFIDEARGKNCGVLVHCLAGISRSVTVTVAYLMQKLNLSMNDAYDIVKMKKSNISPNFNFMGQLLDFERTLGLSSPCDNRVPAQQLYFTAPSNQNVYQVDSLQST

[8] = biological target: Tyrosine-protein phosphatase non-receptor type 11 (Homo sapiens, UniProt Q06124); assay: PTPN11 enzyme inhibitors – biochemical, selectivity assay for STEP inhibitor project, dose response (AID 602367); format: functional; conditions: read-out: IC50_Mean
[9] = biological target: Tyrosine-protein phosphatase non-receptor type 5 (Homo sapiens, UniProt P54829); assay: PTPN5 enzyme inhibition – biochemical, fluorescence intensity, uHTS hits, confirmation (AID 602372); format: functional; conditions: read-out: IC50_Mean
[10] = biological target: T3, Dual specificity protein phosphatase 6; assay: inhibition of rat DUSP6 enzyme activity – biochemical, in vitro, primary screen (AID 425)
[11] = Luminescence Cell-Based Secondary HTS screen to identify cytotoxic compounds of NIH3T3 cells. [Related pubchem assays: 1885, 1968 ]; format: functional
[12] = Luminescence Cell-Based/Microorganism Confirmation at Dose of Inhibitors of Trypanosoma cruzi Infection. [Related pubchem assays: 1885, 1968 ]; format: functional
[13] = T. cruzi infection blockers in NIH3T3 cells – beta-gal luminescence, NIH3T3 host cells, confirmation (AID 2630); format: functional, cell-based; conditions: Mus musculus
BJ [14] = assay: BJ-TERT fibroblast viability loss – cell-based, RAS-independent, luminescence, dose response (AID 1933); format: functional; conditions: Homo sapiens
[15] = luciferase reporter signal reduction – luminescence, H4-C neuroglioblastoma cells, dose response (AID 2458); format: functional, cell-based;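 also: H4 neuroglioblastoma cells stably carrying a luciferase reporter gene fusion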
BJ [16] = assay: growth inhibition of engineered Ras-driven BJ cells – cell-based, alamar blue fluorescence, cherrypicked samples, dose response (AID 2631); format: functional; conditions: Homo sapiens;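 also: confirmatory dose-response assay in RAS-dependent BJ fibroblasts engineered with TERT, LT and ST, with cytotoxicity read by fluorescence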
[17] = alpha-synuclein stem-loop luciferase translation blockers – H4 neuroglioma cells, luminescence, confirmation (AID 1988); format: functional, cell-based
[18] = HEK-293T viability loss, compound-treated – cell-based, uHTS hits, cytotoxicity control for B/T-cell NF-kB inhibitor project, dose response (AID 489019); format: functional;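 also: IC50 reflects cytotoxicity as loss of cell viability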
BJ [19] = assay: BJ-TERT-LT-ST fibroblast viability loss – cell-based, RAS-independent, luminescence, dose response (AID 1935); format: functional; conditions: Homo sapiens;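 also: BJ fibroblasts immortalized with TERT plus LT and ST oncogenes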
[20] = toxicity toward HepG2 liver cells – cell-based, plate reader, cherry-pick, antagonist series, cytotoxicity control, dose response (AID 743416); format: functional
[21] = alpha-synuclein stem-loop translation blockers – luminescence, H4 neuroglioblastoma cells, dose confirmation, confirmation (AID 2454); format: functional, cell-based;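 also: H4 neuroglioblastoma cells carrying an alpha-synuclein 5'UTR luciferase reporter; potency for inhibition of the luciferase signal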
[22] = luciferase reporter signal suppression in cells – H4 neuroglioma cells, luminescence, dose response (AID 1990); format: functional, cell-based
BJ [23] = assay: cells; format: functional, cell-based; conditions: Homo sapiens
[24] = blockade of melanocortin 4 receptor signaling – cell-based, plate reader, cherry pick, counter-screen for LGR2 antagonist project, dose response (AID 743444); format: functional;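 also: transfected HEK 293 cells stimulated with alpha-MSH peptide; potency of inhibitors of the alpha-MSH evoked signal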
[25] = DRD fibroblast viability loss – cell-based, non-viral oncogenic, luminescence, dose response (AID 1934); format: functional; conditions: Homo sapiens
[26] = viability loss in HEK293 cells – cell-based, plate reader, cherry-picked samples, cytotoxicity control, dose response (AID 743446); format: functional
[27] = A549 cell cytotoxicity, dose response, cytotoxicity control, plate reader, cherry-pick, antagonist series (AID 743412); format: functional, cell-based
[28] = biological target: T4, Heat shock factor protein 1 (Mus musculus, UniProt P38532); assay: decrease of HSF1-responsive luciferase luminescence – cell-based, NIH3T3, dose retest, confirmation (AID 2382); format: functional;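 also: NIH3T3 fibroblasts with HSF1-driven luciferase reporter stressed by proteasome inhibitor MG132; luminescence from HSF1-driven luciferase expression after 8 hours of MG132 stress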
T4 sequence (P38532 whole entry): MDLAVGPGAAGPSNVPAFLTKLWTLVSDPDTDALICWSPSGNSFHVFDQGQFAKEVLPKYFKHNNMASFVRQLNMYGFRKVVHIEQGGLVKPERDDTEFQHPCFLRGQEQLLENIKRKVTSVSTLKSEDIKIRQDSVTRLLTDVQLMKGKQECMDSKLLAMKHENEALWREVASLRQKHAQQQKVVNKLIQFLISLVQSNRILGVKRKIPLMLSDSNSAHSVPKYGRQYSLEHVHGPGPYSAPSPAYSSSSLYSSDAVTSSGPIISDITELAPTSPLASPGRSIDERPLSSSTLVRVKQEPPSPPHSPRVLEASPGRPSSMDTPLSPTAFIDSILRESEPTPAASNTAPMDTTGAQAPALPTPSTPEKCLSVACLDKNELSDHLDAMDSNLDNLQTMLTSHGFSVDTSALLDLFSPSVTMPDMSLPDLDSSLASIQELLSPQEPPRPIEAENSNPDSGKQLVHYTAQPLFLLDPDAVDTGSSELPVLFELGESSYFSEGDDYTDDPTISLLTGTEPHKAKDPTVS

cells = format: functional, cell-based
Jurkat = assay: blockers of NF-kB activation in T cells – Jurkat, luciferase reporter, luminescence, B- and T-cell, dose response (AID 489004); format: functional, cell-based; conditions: Homo sapiens;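 also: NF-kB luciferase reporter Jurkat cells stimulated with PMA plus ionomycin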
[29] = blockers of bursicon-stimulated LGR2 cAMP reporter – cell-based, HEK293, CRE-luciferase reporter, cherry pick, set 2, dose response (AID 743343); format: functional;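 also: transfected cells were stimulated with diluted bursicon conditioned medium after compound addition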

T2 sequence (P51452 whole entry): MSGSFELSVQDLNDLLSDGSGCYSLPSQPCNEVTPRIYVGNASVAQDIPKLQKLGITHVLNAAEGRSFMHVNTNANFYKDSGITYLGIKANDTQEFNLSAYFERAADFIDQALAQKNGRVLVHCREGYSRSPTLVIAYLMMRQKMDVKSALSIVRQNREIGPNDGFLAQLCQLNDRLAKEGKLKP
Chain of Tyrosine-protein phosphatase non-receptor type 11 (Q06124 whole entry): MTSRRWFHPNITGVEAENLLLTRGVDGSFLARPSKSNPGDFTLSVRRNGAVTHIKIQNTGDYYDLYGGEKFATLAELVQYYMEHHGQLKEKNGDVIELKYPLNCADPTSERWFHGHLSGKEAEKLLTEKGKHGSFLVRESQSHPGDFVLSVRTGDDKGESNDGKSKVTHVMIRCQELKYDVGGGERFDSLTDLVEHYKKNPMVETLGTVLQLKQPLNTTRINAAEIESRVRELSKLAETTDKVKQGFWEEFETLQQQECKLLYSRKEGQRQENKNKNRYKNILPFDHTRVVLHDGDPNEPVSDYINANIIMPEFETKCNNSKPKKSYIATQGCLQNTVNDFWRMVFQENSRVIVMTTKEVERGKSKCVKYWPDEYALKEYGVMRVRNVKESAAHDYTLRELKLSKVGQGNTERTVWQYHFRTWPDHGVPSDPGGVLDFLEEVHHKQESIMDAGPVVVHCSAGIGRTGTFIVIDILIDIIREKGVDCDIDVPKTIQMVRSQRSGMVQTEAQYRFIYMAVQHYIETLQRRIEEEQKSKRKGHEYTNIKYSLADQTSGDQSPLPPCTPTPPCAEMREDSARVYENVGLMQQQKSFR
Chain of Tyrosine-protein phosphatase non-receptor type 5 (P54829 whole entry): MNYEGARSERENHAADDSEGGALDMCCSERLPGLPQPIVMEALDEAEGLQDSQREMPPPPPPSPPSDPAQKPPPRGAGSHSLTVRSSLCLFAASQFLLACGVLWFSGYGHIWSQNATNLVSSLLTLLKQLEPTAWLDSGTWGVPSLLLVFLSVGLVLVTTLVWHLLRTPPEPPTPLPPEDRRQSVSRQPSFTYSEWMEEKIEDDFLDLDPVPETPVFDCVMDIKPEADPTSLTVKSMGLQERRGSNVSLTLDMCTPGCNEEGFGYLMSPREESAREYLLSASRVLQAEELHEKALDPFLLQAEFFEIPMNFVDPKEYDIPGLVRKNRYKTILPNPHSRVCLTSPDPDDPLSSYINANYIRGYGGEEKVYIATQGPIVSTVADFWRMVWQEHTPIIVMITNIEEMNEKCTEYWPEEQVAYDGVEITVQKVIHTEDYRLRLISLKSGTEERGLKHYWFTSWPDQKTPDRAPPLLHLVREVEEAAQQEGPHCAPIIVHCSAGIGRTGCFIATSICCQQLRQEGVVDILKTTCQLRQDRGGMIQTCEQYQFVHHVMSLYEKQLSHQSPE

With `S=C(c1cn(CCOc2ccccc2)c2ccccc12)N1CCCC1` the IC50 [1] was 0.129 µM (active), the IC50 [2] was 0.727 µM (active) and the IC50 [3] was > 99 µM (inactive). For the same compound, the IC50 [4] was 3.97 µM (active), the IC50 [5] was 1.27 µM (active) and the IC50 [6] was 8.8 µM (active). The IC50 [7] was > 99 µM (inactive), the IC50 [8] was 5.47 µM (active) and the IC50 [9] was 17 µM (active). For the same compound, the IC50 [10] was > 158 µM (not active).

For `Fc1ccc(CCNCc2ccc(Cl)c(Cl)c2)cc1`, the EC50 [11] was > 195 µM (not active), the EC50 [12] was 0.915 µM (active) and the EC50 [13] was 0.915 µM (active).

In the case of `Nc1ncnc2c1ccn2[C@@H]1O[C@H](CO)[C@@H](O)[C@H]1O` [TUBERCIDIN], the EC50 (BJ [14]) is reported as 2.08 µM (inconclusive), the EC50 [15] is reported as 0.252 µM (active) and the EC50 (BJ [16]) is reported as < 0.104 µM (active). For the same compound, the EC50 [17] was < 0.1 µM (active), the IC50 [18] was > 80 µM (inactive) and the EC50 (BJ [19]) was 5.04 µM (active). For the same compound, the AC50 [20] was 0.25 µM (active), the EC50 [21] was 0.204 µM (active) and the EC50 [22] was < 0.1 µM (active). The EC50 (BJ [23]) was 5.45 µM (inconclusive), the AC50 [24] was 3.98 µM (active) and the EC50 [25] was 4.12 µM (active). The AC50 [26] was 1.6 µM (active), the AC50 [27] was 0.0912 µM (active) and the EC50 [28] was 3.06 µM (active). For the same compound, the EC50 (cells) was 0.223 µM (active), the IC50 (Jurkat) was 7.83 µM (active) and the AC50 [29] was 2.77 µM (active).
